Experimental data from patent publication US20080299076A1, “Compunds and compositions that cause non-apoptotic cell death and uses thereof” (priority 2006, published 2008).
Values after ≈ are worked out from the molar mass of the structure shown.

Columns and labels:
CCRF-CEM parental cells = assay: Cell death in taxol/vinblastine resistance panel; format: cell-based; conditions: Homo sapiens
Method: (§1) In certain embodiments, the sensitivity to erastin, can be tested in cell lines that are resistant to taxol and vinblastine. The sensitivity of CCRF-CEM parental, and taxol and vinblastine resistant derivative cells to erastin was tested. […] Erastin analogues can be tested to ensure their effectiveness in inducing cell death in tumor cell line which are resistant to taxol or vinblastin, or other ant-tumor agents.

[1] = tested on: taxol resistant CCRF-CEM derivative cells; assay: Cell death in taxol/vinblastine resistance panel; format: cell-based; conditions: Homo sapiens
Method: as §1

[2] = tested on: vinblastine resistant CCRF-CEM derivative cells; assay: Cell death in taxol/vinblastine resistance panel; format: cell-based; conditions: Homo sapiens
Method: as §1

BJ-DRD cells = assay: Alamar Blue viability assay; format: cell-based; conditions: Homo sapiens; BJ-DRD (+RAS)
Excerpt: The engineered tumor cells make use of dominantly acting viral oncoproteins (LT and ST). These viral proteins are involved in cell transformation in specific forms of cancer, namely simian virus 40-induced malignant mesothelioma^134 and other viral oncogenes (E6 and E7) are involved in human papillomavirus-induced cervical carcinoma^135, and have been used to disrupt p53 and pRB function to transform cells in vitro and in vivo^136-138. The selectivity of erastin and the other compounds were further established in a cell line expressing dominant negative inhibitors of p53 and pRB not derived from viral elements. This cell line expresses (i) a truncated form of p53 (p53DD) that disrupts the tetramerization of endogenous p53, (ii) a CDK4^R24C mutant resistant to inhibition by p16INK4A and p15INK4B (the major negative regulators of CDK4) and (iii) cyclin D1. The effects of these RAS^V12-selective compounds at a range of concentrations were tested in these cells, BJ-TERT/p53^DD/CDK4^R24C/D1/ST/RAS^V12 (named BJ-DRD) cells. […] Thus, these compounds (including erastin) are effective in tumor cells transformed without viral proteins (other than ST).
Alamar Blue metabolism: 10% Alamar Blue was added to assay plates, which were then incubated for an additional 16 hours. Red fluorescence, resulting from reduction of Alamar Blue, was detected on a Victor3 platereader (ex: 530, em: 590).
Table 2. […]

VDAC2, VDAC3 = assay: VDAC isoform levels after erastin treatment (quantitative 2D western); format: cell-based, human
Excerpt: Quantitative western blot of VDAC/eif4E protein ratio in engineered BJ-derived cells. (b) Identification of VDAC isoforms in BJ-TERT/LT/ST/RAS^V12 cells using 2-D electrophoresis. i) VDAC1, VDAC2 and VDAC3 were detected by a rabbit polyclonal VDAC antibody (Abcam/ab3434), ii) VDAC1 was detected by a mouse monoclonal VDAC1 antibody (Calbiochem/529534), iii) VDAC2 was detected by a goat polyclonal VDAC2 antibody (Abcam/ab22170), iv) An illustration of 3 isoforms of VDAC separated by the 2-D gel electrophoresis. (c) BJ-TERT/LT/ST/RAS^V12 cells were treated with erastin for the indicated time and levels of each VDAC isoform determined by quantitative 2D western. (d,e) Infection with VDAC3 shRNA protects erastin-treated cells. 293T cells were transfected with shRNA-plasmid construct using FuGene and viral supernatant transferred to HT1080 cells, and treated with erastin dilutions and viability measured using Trypan Blue exclusion. […] (f) Quantitative RT-PCR measurements of mRNA levels of the 3 VDAC isoforms after infection with shVDAC3. Knockdown was determined by normalizing to the levels in the shGFP-infected control. […] (g) Mitochondria were purified from yeast expressing murine VDAC3 in place of yeast VDAC, and the rate of NADH uptake determined in the presence or absence of erastin, or in shocked mitochondria in which the outer membrane was disrupted. […]

Compound: CCOc1ccccc1-n1c(C(C)N2CCN(C(=O)COc3ccc(Cl)cc3)CC2)nc2ccccc2c1=O (stereo not drawn) [erastin, 2-(1-{4-[2-(4-Chloro-phenoxy)-acetyl]-piperazin-1-yl}-ethyl)-3-(2-ethoxy-phenyl)-3H-quinazolin-4-one]
- IC50 (CCRF-CEM parental cells): 11 µM
- IC50 [1]: 7 µM
- IC50 [2]: 8 µM
- IC50 (BJ-DRD cells): 2.5 µg/mL (≈ 4.57 µM)
- VDAC3 protein level (VDAC2, VDAC3; after 8 hours of erastin treatment): no longer detectable
- VDAC2 protein level (VDAC2, VDAC3; after 10 hours of erastin treatment): undetectable
